Molecules are shown by their SMILES.

The values below come from patent US8436011B2, “Pyridinopyridinone derivatives, preparation thereof and therapeutic use thereof” (Sanofi, priority 2008, dated 2013).

Experiment [1] concerns the target T1, fusion protein Tel/PDGF-Rβ (BaF3 Tel/PDGF cells) (Homo sapiens, UniProt P09619).
T1 construct: the transmembrane and intracellular part of the PDGF-Rβ receptor; N-terminal part of the Tel transcription factor (ETV6); expressed in transfected cells; host or cells: murine haematopoietic cell line BaF/3; the other entry of the earlier key: ETV6 (P41212, Transcription factor ETV6)
Kind of experiment: Inhibition of PDGF-Rβ tyrosine kinase activity: proliferation of BaF3 Tel/PDGF cells (CellTiter-Glo, 72 h). The class given is cell-based, murine. The conditions noted are these: 72 hours incubation, read-out: IC50 (concentration that inhibits 50% of the proliferation of the BaF3 Tel/PDGF cells).

Experiment [2] has as its target T2, FLT3 receptor (MV4-11 cell line bearing an FLT3ITD mutant) (Homo sapiens, UniProt P36888, INS600HVDFREYEYD).
T2 construct: MV4-11 cell line, which line is established from a leukaemia of constitutively active AML type bearing an FLT3ITD mutant; endogenous in cells; host or cells: MV4-11
T2 sequence (P36888 with tags, fused parts or gaps INS600HVDFREYEYD): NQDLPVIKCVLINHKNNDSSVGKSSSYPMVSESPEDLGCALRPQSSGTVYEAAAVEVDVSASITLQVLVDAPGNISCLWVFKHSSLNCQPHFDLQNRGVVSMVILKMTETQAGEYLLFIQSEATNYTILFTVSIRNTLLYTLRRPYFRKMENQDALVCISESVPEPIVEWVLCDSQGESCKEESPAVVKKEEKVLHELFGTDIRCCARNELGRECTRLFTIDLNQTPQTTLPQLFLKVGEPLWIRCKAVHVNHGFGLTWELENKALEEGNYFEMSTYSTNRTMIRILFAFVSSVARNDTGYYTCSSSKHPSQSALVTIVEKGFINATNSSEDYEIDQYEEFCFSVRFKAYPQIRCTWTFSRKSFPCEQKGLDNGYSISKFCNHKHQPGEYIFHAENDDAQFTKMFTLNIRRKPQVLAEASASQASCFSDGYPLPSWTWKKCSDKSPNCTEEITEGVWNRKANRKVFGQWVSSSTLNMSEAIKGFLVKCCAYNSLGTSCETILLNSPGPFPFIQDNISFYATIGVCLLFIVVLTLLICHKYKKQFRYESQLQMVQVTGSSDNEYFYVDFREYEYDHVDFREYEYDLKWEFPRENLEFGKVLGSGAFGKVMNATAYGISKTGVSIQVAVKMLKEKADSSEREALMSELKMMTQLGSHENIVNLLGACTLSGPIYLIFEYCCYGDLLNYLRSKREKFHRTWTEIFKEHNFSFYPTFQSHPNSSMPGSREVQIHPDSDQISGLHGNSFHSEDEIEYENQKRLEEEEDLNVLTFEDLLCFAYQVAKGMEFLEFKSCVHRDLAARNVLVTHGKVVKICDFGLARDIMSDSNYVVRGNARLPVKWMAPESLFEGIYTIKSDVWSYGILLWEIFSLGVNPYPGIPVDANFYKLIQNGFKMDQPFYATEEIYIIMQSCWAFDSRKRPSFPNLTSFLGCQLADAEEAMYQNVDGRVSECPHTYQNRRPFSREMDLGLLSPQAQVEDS
Put plainly: Inhibition of FLT3 receptor tyrosine kinase activity: proliferation of MV4-11 cells (CellTiter-Glo, 72 h). The class given is cell-based. Particulars: 72 hours incubation, read-out: IC50 (concentration that inhibits 50% of the proliferation of the MV4-11 cells). The method, then: Measurement of Inhibition of the Tyrosine Kinase Activity of the FLT3 Receptor
The inhibitory effect of the compounds according to the invention towards the tyrosine kinase activity of the FLT3 receptor was evaluated on an MV4-11 cell line, which line is established from a leukaemia of constitutively active AML type bearing an FLT3ITD mutant. The inhibitory activity is correlated to the inhibition of cell growth, according to the protocols described by Spiekermann, K. et al., Blood, 2003, 101, (4) 1494-1504 and O'Farrell, A.-M. et al., Blood, 2003, 101, (9) 3597-3605.
MV4-11 cells are washed with PBS buffer and inoculated in 96-well plates, at a density of 1×10^5 cells/ml (100 μL per well), in RPMI 1640 containing 10% FCS, in the presence or absence of the test compounds. After incubation for 72 hours, the viable cells are quantified by measuring the cellular ATP by means of the CellTiter-Glo® kit (Promega, Cat G7571). The cells are treated according to the instructions given by the kit manufacturer, and the luminescence is measured using a Luminoskan (Ascent, Labsystem) with the following parameters: measurement: single; integration time: 1000 ms, lag time: 5 s.
The inhibitory activity with respect to the FLT3 receptor is given by the concentration that inhibits 50% of the proliferation of the MV4-11 cells.
On the technique in general: Cellular ATP, detected with luciferase, serves as a proxy for viable cell number.

T1 sequence (P09619 with tags, fused parts or gaps): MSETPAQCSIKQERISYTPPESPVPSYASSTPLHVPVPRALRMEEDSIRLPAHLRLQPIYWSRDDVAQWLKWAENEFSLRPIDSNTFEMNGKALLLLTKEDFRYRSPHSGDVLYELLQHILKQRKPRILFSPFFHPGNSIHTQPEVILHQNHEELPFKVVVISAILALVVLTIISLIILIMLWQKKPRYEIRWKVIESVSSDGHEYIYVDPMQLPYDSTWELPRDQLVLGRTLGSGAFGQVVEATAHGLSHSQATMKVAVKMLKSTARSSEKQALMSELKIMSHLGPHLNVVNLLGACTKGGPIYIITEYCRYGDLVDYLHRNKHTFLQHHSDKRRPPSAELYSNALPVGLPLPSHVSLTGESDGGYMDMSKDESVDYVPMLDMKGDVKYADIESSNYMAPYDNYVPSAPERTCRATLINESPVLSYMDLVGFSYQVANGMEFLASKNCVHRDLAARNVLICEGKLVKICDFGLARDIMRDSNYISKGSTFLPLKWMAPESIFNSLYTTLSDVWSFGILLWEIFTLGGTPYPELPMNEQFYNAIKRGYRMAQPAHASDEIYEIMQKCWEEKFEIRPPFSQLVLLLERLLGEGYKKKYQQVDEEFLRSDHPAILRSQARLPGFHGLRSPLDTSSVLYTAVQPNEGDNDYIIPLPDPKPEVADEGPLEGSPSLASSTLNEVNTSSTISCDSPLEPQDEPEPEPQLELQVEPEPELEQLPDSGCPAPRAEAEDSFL

Regarding `CCN1CC(F)(F)C[C@H]1CNC(=O)Cc1ccc(-c2ccc3c(=O)c(C(=O)NC)c(N)n(CC)c3n2)cc1` [compound 24, 2-amino-1-ethyl-7-{4-[2-({[(2S)-1-ethyl-4,4-difluoropyrrolidin-2-yl]methyl}-amino)-2-oxoethyl]phenyl}-N-methyl-4-oxo-1,4-dihydro-1,8-naphthyridine-3-carboxamide], the IC50 in experiment [1] was 0.002 µM; in experiment [2], 0.19 µM.
Turning to `CCn1c(N)c(C(=O)NC)c(=O)c2ccc(-c3ccc(CC(=O)NCC4COCCN4C4CC4)cc3)nc21` (stereo not shown) [compound 33, 2-amino-7-[4-(2-{[(4-cyclopropylmorpholin-3-yl)methyl]amino}-2-oxoethyl)phenyl]-1-ethyl-N-methyl-4-oxo-1,4-dihydro-1,8-naphthyridine-3-carboxamide], the IC50 was determined as 0.0047 µM in experiment [1] and 0.056 µM in experiment [2].
